# Data reported in US20060134248A1, “Hop acids as a replacement for antibiotics in animal feed” (priority 2002, published 2006).
# Marks after values point to notes of the source that are not given here.
# What was measured:
# Conditions in all cases: hop acids 2 ppm, monensin 6 ppm
# total bacteria = assay: In vitro microbe measurements: bacterial purine (measurement of total bacteria); format: cell-based
# Description: Proprionate is largely responsible for animal growth. […] There appears to be no effect on alfalfa protozoa and alfalfa bacterial purine by the beta acids. Again, reduction in protozoa and bacteria levels means more food and energy for animal growth.
# Isotrichia = assay: In vitro microbe measurements: protozoa count, Isotrichia
# Entodiniomorph spp = assay: In vitro microbe measurements: protozoa count, Entodiniomorph spp / Entodinia
smiles,measurement,setting,value
CC[C@@]1([C@@H]2O[C@@H]([C@H]3O[C@@](O)(CO)[C@H](C)C[C@@H]3C)C[C@@H]2C)CC[C@H]([C@]2(C)CC[C@]3(C[C@H](O)[C@@H](C)[C@@H]([C@@H](C)[C@@H](OC)[C@H](C)C(=O)O)O3)O2)O1 [monensin],Bacterial purines,total bacteria; alfalfa,2.6^c mg/tube
same,"Protozoa and bacterial purines versus control, in words",total bacteria; alfalfa,most effectively eliminate
same,Bacterial purines,total bacteria; barley,1.5^b mg/tube
same,Bacterial purines,total bacteria; corn,1.4^a Mg/tube
same,"Protozoa, Isotrichia",Isotrichia; alfalfa,0^c × 10^3 no/mL
same,"Protozoa, Isotricha",Isotrichia; barley,0 × 10^3 no/mL
same,"Protozoa, Isotricha",Isotrichia; corn,0.7 × 10^3 no/mL
same,"Protozoa, Entodinia",Entodiniomorph spp; alfalfa,6^c × 10^3 no/mL
same,"Protozoa, Entodinia",Entodiniomorph spp; barley,38^b × 10^3 no/mL
same,"Protozoa, Entodinia",Entodiniomorph spp; corn,28^bc × 10^3 no/mL
